Experimental data taken from ChEMBL document CHEMBL1914455, “A dual fluorinated and iodinated radiotracer for PET and SPECT imaging of β-amyloid plaques in the brain” (Bioorg Med Chem Lett, 2011).
The source made the active and inactive calls. The rule behind the calls is not given here.

Assays:
Bone [1] = assay: Biodistribution in ddY mouse bone assessed per gram of tissue at 0.2 to 0.4 uCi, iv after 60 mins; format: ADME, organism-based, Bone element; details: in vivo, 1 h
Blood [2] = assay: Biodistribution in ddY mouse blood assessed per gram of tissue at 0.2 to 0.4 uCi, iv after 10 mins; format: ADME, organism-based; details: in vivo
Brain [3] = assay: Drug elimination from ddY mouse brain assessed per gram of tissue after 60 mins; format: ADME, organism-based; details: in vivo, 1 h
Bone [4] = assay: Biodistribution in ddY mouse bone assessed per gram of tissue at 0.2 to 0.4 uCi, iv after 2 mins; format: ADME, organism-based, Bone element; details: in vivo
Brain [5] = assay: Biodistribution in ddY mouse brain assessed per gram of tissue at 0.2 to 0.4 uCi, iv after 2 mins; format: ADME, organism-based; details: in vivo
Blood [6] = assay: Biodistribution in ddY mouse blood assessed per gram of tissue at 0.2 to 0.4 uCi, iv after 60 mins; format: ADME, organism-based; details: in vivo, 1 h
Brain [7] = assay: Biodistribution in ddY mouse brain assessed per gram of tissue at 0.2 to 0.4 uCi, iv after 10 mins; format: ADME, organism-based; details: in vivo
Bone [8] = assay: Biodistribution in ddY mouse bone assessed per gram of tissue at 0.2 to 0.4 uCi, iv after 10 mins; format: ADME, organism-based, Bone element; details: in vivo
Blood [9] = assay: Biodistribution in ddY mouse blood assessed per gram of tissue at 0.2 to 0.4 uCi, iv after 30 mins; format: ADME, organism-based; details: in vivo, 0.5 h
Bone [10] = assay: Biodistribution in ddY mouse bone assessed per gram of tissue at 0.2 to 0.4 uCi, iv after 30 mins; format: ADME, organism-based, Bone element; details: in vivo, 0.5 h
Brain [11] = assay: Biodistribution in ddY mouse brain assessed per gram of tissue at 0.2 to 0.4 uCi, iv after 30 mins; format: ADME, organism-based; details: in vivo, 0.5 h
Blood [12] = assay: Biodistribution in ddY mouse blood assessed per gram of tissue at 0.2 to 0.4 uCi, iv after 2 mins; format: ADME, organism-based; details: in vivo
Brain [13] = assay: Biodistribution in ddY mouse brain assessed per gram of tissue at 0.2 to 0.4 uCi, iv after 60 mins; format: ADME, organism-based; details: in vivo, 1 h
Heart [14] = assay: Biodistribution in ddY mouse heart assessed per gram of tissue at 0.2 to 0.4 uCi, iv after 2 mins; format: ADME, organism-based; details: in vivo
Kidney [15] = assay: Biodistribution in ddY mouse kidney assessed per gram of tissue at 0.2 to 0.4 uCi, iv after 10 mins; format: ADME, organism-based; details: in vivo
Heart [16] = assay: Biodistribution in ddY mouse heart assessed per gram of tissue at 0.2 to 0.4 uCi, iv after 60 mins; format: ADME, organism-based; details: in vivo, 1 h
Spleen [17] = assay: Biodistribution in ddY mouse spleen assessed per gram of tissue at 0.2 to 0.4 uCi, iv after 60 mins; format: ADME, organism-based; details: in vivo, 1 h
Liver [18] = assay: Biodistribution in ddY mouse liver assessed per gram of tissue at 0.2 to 0.4 uCi, iv after 2 mins; format: ADME, organism-based; details: in vivo
Spleen [19] = assay: Biodistribution in ddY mouse spleen assessed per gram of tissue at 0.2 to 0.4 uCi, iv after 2 mins; format: ADME, organism-based; details: in vivo
Stomach [20] = assay: Biodistribution in ddY mouse stomach assessed per gram of tissue at 0.2 to 0.4 uCi, iv after 60 mins; format: ADME, organism-based; details: in vivo, 1 h
Spleen [21] = assay: Biodistribution in ddY mouse spleen assessed per gram of tissue at 0.2 to 0.4 uCi, iv after 30 mins; format: ADME, organism-based; details: in vivo, 0.5 h
Kidney [22] = assay: Biodistribution in ddY mouse kidney assessed per gram of tissue at 0.2 to 0.4 uCi, iv after 2 mins; format: ADME, organism-based; details: in vivo
Kidney [23] = assay: Biodistribution in ddY mouse kidney assessed per gram of tissue at 0.2 to 0.4 uCi, iv after 30 mins; format: ADME, organism-based; details: in vivo, 0.5 h
Heart [24] = assay: Biodistribution in ddY mouse heart assessed per gram of tissue at 0.2 to 0.4 uCi, iv after 10 mins; format: ADME, organism-based; details: in vivo
Pancreas [25] = assay: Biodistribution in ddY mouse pancreas assessed per gram of tissue at 0.2 to 0.4 uCi, iv after 2 mins; format: ADME, organism-based; details: in vivo
Stomach [26] = assay: Biodistribution in ddY mouse stomach assessed per gram of tissue at 0.2 to 0.4 uCi, iv after 30 mins; format: ADME, organism-based; details: in vivo, 0.5 h
Spleen [27] = assay: Biodistribution in ddY mouse spleen assessed per gram of tissue at 0.2 to 0.4 uCi, iv after 10 mins; format: ADME, organism-based; details: in vivo
Intestine [28] = assay: Biodistribution in ddY mouse intestine assessed per gram of tissue at 0.2 to 0.4 uCi, iv after 30 mins; format: ADME, organism-based; details: in vivo, 0.5 h
Pancreas [29] = assay: Biodistribution in ddY mouse pancreas assessed per gram of tissue at 0.2 to 0.4 uCi, iv after 10 mins; format: ADME, organism-based; details: in vivo
Pancreas [30] = assay: Biodistribution in ddY mouse pancreas assessed per gram of tissue at 0.2 to 0.4 uCi, iv after 60 mins; format: ADME, organism-based; details: in vivo, 1 h
Kidney [31] = assay: Biodistribution in ddY mouse kidney assessed per gram of tissue at 0.2 to 0.4 uCi, iv after 60 mins; format: ADME, organism-based; details: in vivo, 1 h
Liver [32] = assay: Biodistribution in ddY mouse liver assessed per gram of tissue at 0.2 to 0.4 uCi, iv after 60 mins; format: ADME, organism-based; details: in vivo, 1 h
Liver [33] = assay: Biodistribution in ddY mouse liver assessed per gram of tissue at 0.2 to 0.4 uCi, iv after 30 mins; format: ADME, organism-based; details: in vivo, 0.5 h
Pancreas [34] = assay: Biodistribution in ddY mouse pancreas assessed per gram of tissue at 0.2 to 0.4 uCi, iv after 30 mins; format: ADME, organism-based; details: in vivo, 0.5 h
[35] = Octanol-water partition coefficient, log P of the compound at pH 7.4; format: physicochemical
Heart [36] = assay: Biodistribution in ddY mouse heart assessed per gram of tissue at 0.2 to 0.4 uCi, iv after 30 mins; format: ADME, organism-based; details: in vivo, 0.5 h
Intestine [37] = assay: Biodistribution in ddY mouse intestine assessed per gram of tissue at 0.2 to 0.4 uCi, iv after 2 mins; format: ADME, organism-based; details: in vivo
Intestine [38] = assay: Biodistribution in ddY mouse intestine assessed per gram of tissue at 0.2 to 0.4 uCi, iv after 10 mins; format: ADME, organism-based; details: in vivo
Stomach [39] = assay: Biodistribution in ddY mouse stomach assessed per gram of tissue at 0.2 to 0.4 uCi, iv after 2 mins; format: ADME, organism-based; details: in vivo
Stomach [40] = assay: Biodistribution in ddY mouse stomach assessed per gram of tissue at 0.2 to 0.4 uCi, iv after 10 mins; format: ADME, organism-based; details: in vivo
Liver [41] = assay: Biodistribution in ddY mouse liver assessed per gram of tissue at 0.2 to 0.4 uCi, iv after 10 mins; format: ADME, organism-based; details: in vivo
Intestine [42] = assay: Biodistribution in ddY mouse intestine assessed per gram of tissue at 0.2 to 0.4 uCi, iv after 60 mins; format: ADME, organism-based; details: in vivo, 1 h
Mus musculus [43] = organism: Mus musculus; assay: Binding affinity to amyloid beta (1 to 42) in wild type mouse brain sections by neuropathological staining method; format: tissue-based
Mus musculus [44] = organism: Mus musculus; assay: Binding affinity to amyloid beta (1 to 42) in Tg2576 mouse brain sections by neuropathological staining method; format: tissue-based
[45] = target: Amyloid-beta precursor protein (Homo sapiens) (UniProt P05067); assay: Binding affinity to beta-amyloid plaque in brain of patient with Alzheimers disease at 1.6 uCi after 1 hr by autoradiography; format: tissue-based; details: tested as the 125I-labelled form
Amyloid-beta precursor protein (Homo sapiens), sequence (P05067 whole entry): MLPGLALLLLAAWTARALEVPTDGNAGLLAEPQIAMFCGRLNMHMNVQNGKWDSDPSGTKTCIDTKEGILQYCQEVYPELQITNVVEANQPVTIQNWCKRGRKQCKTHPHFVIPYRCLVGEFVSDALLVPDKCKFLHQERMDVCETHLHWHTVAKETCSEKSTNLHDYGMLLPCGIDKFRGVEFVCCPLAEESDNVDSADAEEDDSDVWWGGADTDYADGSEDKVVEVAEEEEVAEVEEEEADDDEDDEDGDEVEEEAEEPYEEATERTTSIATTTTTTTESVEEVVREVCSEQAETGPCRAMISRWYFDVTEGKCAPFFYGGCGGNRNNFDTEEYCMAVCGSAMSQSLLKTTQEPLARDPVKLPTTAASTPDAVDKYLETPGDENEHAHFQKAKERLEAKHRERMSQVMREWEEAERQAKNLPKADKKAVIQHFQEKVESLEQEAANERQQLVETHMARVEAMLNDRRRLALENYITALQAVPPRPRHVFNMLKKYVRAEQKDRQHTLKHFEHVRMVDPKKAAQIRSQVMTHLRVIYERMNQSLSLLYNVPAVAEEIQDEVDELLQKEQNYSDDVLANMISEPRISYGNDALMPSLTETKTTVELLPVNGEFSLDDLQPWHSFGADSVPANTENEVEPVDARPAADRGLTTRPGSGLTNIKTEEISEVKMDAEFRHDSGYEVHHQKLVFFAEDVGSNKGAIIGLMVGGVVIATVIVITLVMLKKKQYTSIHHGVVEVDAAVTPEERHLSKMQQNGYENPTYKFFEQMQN

[46] = target: Amyloid-beta precursor protein (Homo sapiens) (UniProt P05067); assay: Binding affinity to beta-amyloid plaque in normal human brain sections at 1.6 uCi after 1 hr by autoradiography; details: tested as the 125I-labelled form
[47] = Displacement of [125I]IMPY from amyloid beta (1 to 42) after 3 hrs by gamma counting

Structure (SMILES): O=C1/C(=C/c2ccc(OCC[18F])cc2)Oc2ccc(I)cc21
- Drug uptake (Bone [1]): 3.42 %ID
- Drug uptake (Blood [2]): 2.84 %ID
- CL (Brain [3]): 1.75 %ID
- Drug uptake (Bone [4]): 2.03 %ID
- Drug uptake (Brain [5]): 3.66 %ID
- Drug uptake (Blood [6]): 2.61 %ID
- Drug uptake (Brain [7]): 2.37 %ID
- Drug uptake (Bone [8]): 2.13 %ID
- Drug uptake (Blood [9]): 2.68 %ID
- Drug uptake (Bone [10]): 3.45 %ID
- Drug uptake (Brain [11]): 1.77 %ID
- Drug uptake (Blood [12]): 5.72 %ID
- Drug uptake (Brain [13]): 1.75 %ID

Structure (SMILES): O=C1/C(=C/c2ccc(OCCF)cc2)Oc2ccc([125I])cc21
- Drug uptake (Heart [14]): 4.9 %ID
- Drug uptake (Kidney [15]): 7.53 %ID
- Drug uptake (Blood [2]): 3.13 %ID
- Drug uptake (Heart [16]): 1.19 %ID
- Drug uptake (Spleen [17]): 2.37 %ID
- CL (Brain [3]): 0.19 %ID
- Drug uptake (Liver [18]): 17.06 %ID
- Drug uptake (Spleen [19]): 3.74 %ID
- Drug uptake (Stomach [20]): 0.89 %ID
- Drug uptake (Brain [5]): 2.34 %ID
- Drug uptake (Spleen [21]): 3.61 %ID
- Drug uptake (Kidney [22]): 6.96 %ID
- Drug uptake (Kidney [23]): 5.49 %ID
- Drug uptake (Heart [24]): 1.95 %ID
- Drug uptake (Blood [6]): 1.29 %ID
- Drug uptake (Brain [7]): 0.84 %ID
- Drug uptake (Pancreas [25]): 3.44 %ID
- Drug uptake (Stomach [26]): 0.79 %ID
- Drug uptake (Blood [9]): 1.94 %ID
- Drug uptake (Spleen [27]): 4.33 %ID
- Drug uptake (Intestine [28]): 12.35 %ID
- Drug uptake (Pancreas [29]): 1.33 %ID
- Drug uptake (Pancreas [30]): 1.35 %ID
- Drug uptake (Kidney [31]): 5.22 %ID
- Drug uptake (Brain [11]): 0.19 %ID
- Drug uptake (Liver [32]): 10.96 %ID
- Drug uptake (Liver [33]): 12.44 %ID
- Drug uptake (Blood [12]): 6.7 %ID
- Drug uptake (Pancreas [34]): 0.8 %ID
- logD [35]: 2.45
- Drug uptake (Heart [36]): 1.54 %ID
- Drug uptake (Intestine [37]): 2.02 %ID
- Drug uptake (Brain [13]): 0.19 %ID
- Drug uptake (Intestine [38]): 6.53 %ID
- Drug uptake (Stomach [39]): 0.61 %ID
- Drug uptake (Stomach [40]): 1.46 %ID
- Drug uptake (Liver [41]): 16.5 %ID
- Drug uptake (Intestine [42]): 15.74 %ID

Structure (SMILES): O=C1/C(=C/c2ccc(OCCF)cc2)Oc2ccc(I)cc21
- Activity (Mus musculus [43]): inactive
- Activity (Mus musculus [44]): Active
- Activity [45]: Active
- Activity [46]: inactive
- Activity [47]: Dose-dependent effect
- Ki [47]: 6.81 nM
